Converted amounts (≈) assume the structure as drawn. Where two headings read alike, the source gives them in different places.
Assays:
[1] = test system: Cryptococcus neoformans; assay: MIC/MFC broth microdilution (CLSI);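 note: susceptibility testing followed the CLSI M27-Ed4 broth microdilution document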
Procedure: (§1) Antifungal susceptibility was determined by broth microdilution according to the CLSI guidelines described in M27-Ed4 ([16]). […] MFC was determined by back-plating drug-treated cultures from MIC broths onto SDA plates. The MFC was defined as the lowest concentration from which no colonies could be cultured.

[2] = test system: Candida glabrata; assay: checkerboard drug interaction (FICI, MICc); format: cell-based; settings: for INH FD (MIC-MICc fold decrease): fold decrease of inhibitor MIC;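 for all read-outs here: simplified diagonal checkerboard screen pairing antifungals with FPPS inhibitors, FICI calculated under the Loewe additivity model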
Procedure: (§2) Drug interactions between antifungals and FPPS inhibitors were investigated using a simplified checkerboard diagonal screening method ([45]). […] FICIs were determined according to the Loewe additivity model ([17]).

[3] = test system: eight fungal species; assay: MIC/MFC summary across the eight fungal species of Table 1; format: cell-based
Procedure: The antifungal activity of these compounds was evaluated according to CLSI guidelines ([16]).

[4] = test system: Aspergillus flavus; assay: checkerboard drug interaction (FICI, MICc); format: cell-based; set-up: INH MICc (KET:INH) / INH MICc (FLC:INH): unit not given beside the values;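 note: simplified diagonal checkerboard screen pairing azole antifungals with FPPS inhibitors, FICI calculated under the Loewe additivity model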
[5] = test system: Cryptococcus deuterogattii; assay: checkerboard drug interaction (FICI, MICc); format: cell-based; settings: for INH FD (MIC-MICc fold decrease): fold decrease of inhibitor MIC;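 for all read-outs here: simplified diagonal checkerboard screen pairing antifungal drugs with FPPS inhibitors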
Procedure: as §2

[6] = test system: Aspergillus felis; assay: MIC broth microdilution (CLSI); format: cell-based; settings: Aspergillus felis IHE87256683D6
Procedure: Antifungal susceptibility was determined by broth microdilution according to the CLSI guidelines described in M27-Ed4 ([16]).

[7] = test system: Saccharomyces cerevisiae; assay: checkerboard drug interaction (FICI, MICc); format: cell-based; set-up: INH MICc / INH MICc (ITR:INH) / INH MICc (KET:INH) / INH MICc (FLC:INH): unit not given beside the values; settings: for INH FD (MIC-MICc fold decrease): fold decrease of inhibitor MIC;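 for all read-outs here: simplified diagonal checkerboard screen pairing antifungals with FPPS inhibitors, FICI calculated under the Loewe additivity model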
[8] = test system: HEK-293T cells; assay: MTT reduction cytotoxicity assay; format: cell-based; settings: Homo sapiens
[9] = test system: Aspergillus fumigatus; assay: MIC/MFC broth microdilution (CLSI); settings: ATCC204305
Procedure: as §1

[10] = test system: Cryptococcus neoformans; assay: checkerboard drug interaction (FICI, MICc); format: cell-based;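 note: antifungal plus FPPS inhibitor pairs tested against Cryptococcus neoformans by simplified diagonal checkerboard screening, FICI computed under the Loewe additivity model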
Procedure: as §2

[11] = C. glabrata, FLC:INH combination
[12] = C. glabrata, ITR:INH combination
[13] = C. glabrata, KET:INH combination
[14] = C. deuterogattii, FLC:INH combination
[15] = C. deuterogattii, ITR:INH combination
[16] = C. deuterogattii, KET:INH combination
[17] = S. cerevisiae, FLC:INH combination
[18] = S. cerevisiae, ITR:INH combination
[19] = S. cerevisiae, KET:INH combination

SMILES: O=P(O)(O)C(O)(Cn1ccnc1)P(=O)(O)O [ZOL, zoledronate]
- MFC ([1]; Cryptococcus neoformans): > 128 µg/mL
- MIC ([1]; Cryptococcus neoformans): 32 µg/mL (≈ 118 µM)
- MIC / MEC ([1]; Cryptococcus neoformans H99): 32 µg/mL (≈ 118 µM)
- FICI ([2]; 5FC:ZOL): 0.63
- FICI ([2]; AMB:ZOL): 0.63
- FICI [2, 11]: 0.09
- INH MICc ([2]; C. glabrata, FLC:INH combination, MIC of the inhibitor in combination with FLC): 1
- FLC FD (MIC-MICc fold decrease) ([2]; C. glabrata, FLC:INH combination, fold decrease of FLC MIC): 16
- INH FD (MIC-MICc fold decrease) [2, 11]: 8
- FICI [2, 12]: 0.16
- INH MICc ([2]; C. glabrata, ITR:INH combination, MIC of the inhibitor in combination with ITR): 1
- ITR FD (MIC-MICc fold decrease) ([2]; C. glabrata, ITR:INH combination, fold decrease of ITR MIC): 8
- INH FD (MIC-MICc fold decrease) [2, 12]: 8
- FICI [2, 13]: 0.31
- INH MICc ([2]; C. glabrata, KET:INH combination, MIC of the inhibitor in combination with KET): 2
- KET FD (MIC-MICc fold decrease) ([2]; C. glabrata, KET:INH combination, fold decrease of KET MIC): 4
- INH FD (MIC-MICc fold decrease) [2, 13]: 4
- FICI ([2]; CAS:ZOL): 2.05
- FICI ([2]; FLC:ZOL): 0.09
- FICI ([2]; ITR:ZOL): 0.16
- FICI ([2]; KET:ZOL): 0.31
- FICI ([2]; VOR:ZOL): 0.38
- bisphosphonate MICc ([2]; ZOL with 5FC): 1
- bisphosphonate MICc ([2]; ZOL with AMB): 1
- bisphosphonate MICc ([2]; ZOL with CAS): 1
- bisphosphonate MICc ([2]; ZOL with FLC): 1
- bisphosphonate MICc ([2]; ZOL with ITR): 1
- bisphosphonate MICc ([2]; ZOL with KET): 2
- bisphosphonate MICc ([2]; ZOL with VOR): 1
- FICI ([2]; with FLC, Candida glabrata): 0.09
- FICI ([2]; with ITR, Candida glabrata): 0.16
- FICI ([2]; with KET, Candida glabrata): 0.31
- Geometric mean MFC ([3]; across eight species): 181.0 µg/mL
- Geometric mean MIC ([3]; across eight species): 98.7 µg/mL
- MFC ([3]; across eight species, read-out: Geometric mean MFC): 181 µg/mL (≈ 665 µM)
- MIC ([3]; geometric mean across eight species, read-out: GM fungal MIC): 98.7 µg/mL (≈ 363 µM)
- MIC ([3]; read-out: Geometric mean MIC): 98.7 µg/mL (≈ 363 µM)
- FICI ([4]; 5FC:ZOL): 2
- FICI (FLC:INH) ([4]; A. flavus, Fractional Inhibitory Concentration Index, fluconazole + inhibitor): 0.63
- FICI (ITR:INH) ([4]; A. flavus, Fractional Inhibitory Concentration Index, itraconazole + inhibitor): 1.13
- FICI (KET:INH) ([4]; A. flavus, Fractional Inhibitory Concentration Index, ketoconazole + inhibitor): 1.5
- INH MICc (FLC:INH) ([4]; A. flavus, MIC of the inhibitor in combination with fluconazole): 32
- INH MICc (ITR:INH) ([4]; A. flavus, MIC of the inhibitor in combination with itraconazole): 32
- INH MICc (KET:INH) ([4]; A. flavus, MIC of the inhibitor in combination with ketoconazole): 128
- FLC FD (FLC:INH) ([4]; A. flavus, MIC-MICc fold decrease of fluconazole, negative = increase): 2
- ITR FD (ITR:INH) ([4]; A. flavus, MIC-MICc fold decrease of itraconazole, negative = increase): 1
- KET FD (KET:INH) ([4]; A. flavus, MIC-MICc fold decrease of ketoconazole, negative = increase): 1
- INH FD (FLC:INH) ([4]; A. flavus, MIC-MICc fold decrease of the inhibitor, with fluconazole): 8
- INH FD (ITR:INH) ([4]; A. flavus, MIC-MICc fold decrease of the inhibitor, with itraconazole): 8
- INH FD (KET:INH) ([4]; A. flavus, MIC-MICc fold decrease of the inhibitor, with ketoconazole): 2
- FICI ([4]; AMB:ZOL): 0.63
- FICI ([4]; CAS:ZOL): 1
- FICI ([4]; FLC:ZOL): 0.56
- FICI ([4]; ITR:ZOL): 1.06
- FICI ([4]; KET:ZOL): 1.25
- FICI ([4]; VOR:ZOL): 1
- bisphosphonate MICc ([4]; ZOL with 5FC): 512
- bisphosphonate MICc ([4]; ZOL with AMB): 64
- bisphosphonate MICc ([4]; ZOL with CAS): 256
- bisphosphonate MICc ([4]; ZOL with FLC): 32
- bisphosphonate MICc ([4]; ZOL with ITR): 32
- bisphosphonate MICc ([4]; ZOL with KET): 128
- bisphosphonate MICc ([4]; ZOL with VOR): 256
- FICI ([4]; with FLC, Aspergillus flavus): 0.63
- FICI ([4]; with ITR, Aspergillus flavus): 1.13
- FICI ([4]; with KET, Aspergillus flavus): 1.50
- FICI ([5]; 5FC:ZOL): 1.02
- FICI ([5]; AMB:ZOL): 2
- FICI [5, 14]: 0.25
- INH MICc ([5]; C. deuterogattii, FLC:INH combination, MIC of the inhibitor in combination with FLC): 8
- FLC FD (MIC-MICc fold decrease) ([5]; C. deuterogattii, FLC:INH combination, fold decrease of FLC MIC): 8
- INH FD (MIC-MICc fold decrease) [5, 14]: 8
- FICI [5, 15]: 0.38
- INH MICc ([5]; C. deuterogattii, ITR:INH combination, MIC of the inhibitor in combination with ITR): 8
- ITR FD (MIC-MICc fold decrease) ([5]; C. deuterogattii, ITR:INH combination, fold decrease of ITR MIC): 4
- INH FD (MIC-MICc fold decrease) [5, 15]: 8
- FICI [5, 16]: 0.31
- INH MICc ([5]; C. deuterogattii, KET:INH combination, MIC of the inhibitor in combination with KET): 16
- KET FD (MIC-MICc fold decrease) ([5]; C. deuterogattii, KET:INH combination, fold decrease of KET MIC): 16
- INH FD (MIC-MICc fold decrease) [5, 16]: 4
- FICI ([5]; CAS:ZOL): 1.5
- FICI ([5]; FLC:ZOL): 0.25
- FICI ([5]; ITR:ZOL): 0.38
- FICI ([5]; KET:ZOL): 0.31
- FICI ([5]; VOR:ZOL): 0.5
- bisphosphonate MICc ([5]; ZOL with 5FC): 128
- bisphosphonate MICc ([5]; ZOL with AMB): 128
- bisphosphonate MICc ([5]; ZOL with CAS): 64
- bisphosphonate MICc ([5]; ZOL with FLC): 8
- bisphosphonate MICc ([5]; ZOL with ITR): 8
- bisphosphonate MICc ([5]; ZOL with KET): 16
- bisphosphonate MICc ([5]; ZOL with VOR): 32
- FICI ([5]; with FLC, Cryptococcus deuterogattii): 0.25
- FICI ([5]; with ITR, Cryptococcus deuterogattii): 0.38
- FICI ([5]; with KET, Cryptococcus deuterogattii): 0.31
- MIC / MEC [6]: >256 µg/mL
- FICI ([7]; 5FC:ZOL): 1.25
- FICI ([7]; AMB:ZOL): 2.5
- FICI ([7]; CAS:ZOL): 1.01
- FICI ([7]; FLC:ZOL): 0.38
- FICI ([7]; ITR:ZOL): 0.5
- FICI ([7]; KET:ZOL): 0.25
- FICI [7, 17]: 0.38
- FLC MICc ([7]; S. cerevisiae, FLC:INH combination, MIC of FLC in combination with the inhibitor): 1
- INH MICc ([7]; S. cerevisiae, FLC:INH combination, MIC of the inhibitor in combination with FLC): 32
- FLC FD (MIC-MICc fold decrease) ([7]; S. cerevisiae, FLC:INH combination, fold decrease of FLC MIC): 4
- INH FD (MIC-MICc fold decrease) [7, 17]: 8
- FICI [7, 18]: 0.5
- ITR MICc ([7]; S. cerevisiae, ITR:INH combination, MIC of ITR in combination with the inhibitor): 0.063
- INH MICc ([7]; S. cerevisiae, ITR:INH combination, MIC of the inhibitor in combination with ITR): 64
- ITR FD (MIC-MICc fold decrease) ([7]; S. cerevisiae, ITR:INH combination, fold decrease of ITR MIC): 4
- INH FD (MIC-MICc fold decrease) [7, 18]: 4
- FICI [7, 19]: 0.25
- KET MICc ([7]; S. cerevisiae, KET:INH combination, MIC of KET in combination with the inhibitor): 0.25
- INH MICc ([7]; S. cerevisiae, KET:INH combination, MIC of the inhibitor in combination with KET): 32
- KET FD (MIC-MICc fold decrease) ([7]; S. cerevisiae, KET:INH combination, fold decrease of KET MIC): 8
- INH FD (MIC-MICc fold decrease) [7, 19]: 8
- FICI ([7]; VOR:ZOL): 0.75
- bisphosphonate MICc ([7]; ZOL with 5FC): 64
- bisphosphonate MICc ([7]; ZOL with AMB): 128
- bisphosphonate MICc ([7]; ZOL with CAS): 2
- bisphosphonate MICc ([7]; ZOL with FLC): 32
- bisphosphonate MICc ([7]; ZOL with ITR): 64
- bisphosphonate MICc ([7]; ZOL with KET): 32
- bisphosphonate MICc ([7]; ZOL with VOR): 64
- FICI ([7]; with FLC, Saccharomyces cerevisiae): 0.38
- FICI ([7]; with ITR, Saccharomyces cerevisiae): 0.50
- FICI ([7]; with KET, Saccharomyces cerevisiae): 0.25
- IC50 ([8]; HEK-293T, read-out: HEK IC50): > 256 µg/mL
- IC50 ([8]; HEK-293T cells, projected value, read-out: predicted IC50): > 256 µg/mL
- MFC [9]: > 128 µg/mL
- MIC [9]: > 128 µg/mL
- MIC / MEC [9]: >256 µg/mL
- FICI ([10]; 5FC:ZOL): 0.75
- FICI ([10]; AMB:ZOL): 2.25
- FICI ([10]; C. neoformans, FLC:INH combination): 0.38
